Test results from ChEMBL document CHEMBL1641455, “Discovery of novel ureas and thioureas of 3-decladinosyl-3-hydroxy 15-membered azalides active against efflux-mediated resistant Streptococcus pneumoniae” (2011).
≈ marks a conversion by molar mass, not a printed value.

Experiments:
Type in all cases: functional
Staphylococcus aureus = assay: Antimicrobial activity against Staphylococcus aureus ATCC 29213 after 16 to 22 hrs by broth microdilution method
Streptococcus pneumoniae [1] = assay: Antimicrobial activity against erythromycin-susceptible Streptococcus pneumoniae after 16 to 22 hrs by broth microdilution method
Streptococcus pneumoniae [2] = assay: Antimicrobial activity against macrolide-resistant erythromycin-Streptococcus pneumoniae after 16 to 22 hrs by broth microdilution method
Streptococcus pyogenes [3] = assay: Antimicrobial activity against erythromycin-susceptible Streptococcus pyogenes after 16 to 22 hrs by broth microdilution method
Streptococcus pyogenes [4] = assay: Antimicrobial activity against macrolide-resistant erythromycin-Streptococcus pyogenes after 16 to 22 hrs by broth microdilution method
Moraxella catarrhalis = assay: Antimicrobial activity against Moraxella catarrhalis ATCC 23246 after 16 to 22 hrs by broth microdilution method
Haemophilus influenzae = assay: Antimicrobial activity against Haemophilus influenzae ATCC 49247 after 16 to 22 hrs by broth microdilution method
Enterococcus faecalis = assay: Antimicrobial activity against Enterococcus faecalis ATCC 29212 after 16 to 22 hrs by broth microdilution method
Escherichia coli = assay: Antimicrobial activity against Escherichia coli ATCC 25922 after 16 to 22 hrs by broth microdilution method
[5] = Staphylococcus aureus, ATCC 29213, read-out: MIC
[6] = Streptococcus pneumoniae, read-out: MIC
[7] = Streptococcus pyogenes, read-out: MIC
[8] = Haemophilus influenzae, ATCC 49247, read-out: MIC
[9] = Escherichia coli, ATCC 25922, read-out: MIC

## CC[C@H]1OC(=O)[C@H](C)[C@@H](O)[C@H](C)[C@@H](O[C@@H]2O[C@H](C)C[C@H](N(C)C)[C@H]2O)[C@](C)(O)C[C@@H](C)CN(CCCNC(=O)Nc2cccc3ccccc23)[C@H](C)[C@@H](O)[C@]1(C)O
Staphylococcus aureus; [5]
  MIC: > 64 mg/L
Streptococcus pneumoniae [1]; [6]
  MIC: 1 mg/L (≈ 1.25 µM)
Streptococcus pneumoniae [2]; [6]
  MIC: 8 mg/L (≈ 9.96 µM)
Streptococcus pyogenes [3]; [7]
  MIC: 2 mg/L (≈ 2.49 µM)
Streptococcus pyogenes [4]; [7]
  MIC: 16 mg/L (≈ 19.9 µM)
Moraxella catarrhalis
  MIC: 2 mg/L (≈ 2.49 µM)
Haemophilus influenzae; [8]
  MIC: 2 mg/L (≈ 2.49 µM)
Enterococcus faecalis
  MIC: 32 mg/L (≈ 39.8 µM)
Escherichia coli; [9]
  MIC: 8 mg/L (≈ 9.96 µM)

## CC[C@H]1OC(=O)[C@H](C)[C@@H](O)[C@H](C)[C@@H](O[C@@H]2O[C@H](C)C[C@H](N(C)C)[C@H]2O)[C@](C)(O)C[C@@H](C)CN(CCCNC(=S)Nc2cccc3ccccc23)[C@H](C)[C@@H](O)[C@]1(C)O
Staphylococcus aureus; [5]
  MIC: > 64 mg/L
Streptococcus pneumoniae [1]; [6]
  MIC: 1 mg/L (≈ 1.22 µM)
Streptococcus pneumoniae [2]; [6]
  MIC: 2 mg/L (≈ 2.44 µM)
Streptococcus pyogenes [3]; [7]
  MIC: 8 mg/L (≈ 9.77 µM)
Streptococcus pyogenes [4]; [7]
  MIC: 64 mg/L (≈ 78.1 µM)
Moraxella catarrhalis
  MIC: 0.5 mg/L (≈ 0.61 µM)
Haemophilus influenzae; [8]
  MIC: 4 mg/L (≈ 4.88 µM)
Enterococcus faecalis
  MIC: 32 mg/L (≈ 39.1 µM)
Escherichia coli; [9]
  MIC: 16 mg/L (≈ 19.5 µM)

## CC[C@H]1OC(=O)[C@H](C)[C@@H](O)[C@H](C)[C@@H](O[C@@H]2O[C@H](C)C[C@H](N(C)C)[C@H]2O)[C@](C)(O)C[C@@H](C)CN(CCCNC(=S)NCCc2ccccc2)[C@H](C)[C@@H](O)[C@]1(C)O
Staphylococcus aureus; [5]
  MIC: > 64 mg/L
Streptococcus pneumoniae [1]; [6]
  MIC: 4 mg/L (≈ 5.02 µM)
Streptococcus pneumoniae [2]; [6]
  MIC: 16 mg/L (≈ 20.1 µM)
Streptococcus pyogenes [3]; [7]
  MIC: 32 mg/L (≈ 40.1 µM)
Streptococcus pyogenes [4]; [7]
  MIC: 64 mg/L (≈ 80.3 µM)
Moraxella catarrhalis
  MIC: 4 mg/L (≈ 5.02 µM)
Haemophilus influenzae; [8]
  MIC: 16 mg/L (≈ 20.1 µM)
Enterococcus faecalis
  MIC: 64 mg/L (≈ 80.3 µM)
Escherichia coli; [9]
  MIC: 64 mg/L (≈ 80.3 µM)

## CC[C@H]1OC(=O)[C@H](C)[C@@H](O)[C@H](C)[C@@H](O[C@@H]2O[C@H](C)C[C@H](N(C)C)[C@H]2O)[C@](C)(O)C[C@@H](C)CN(CCCN(CCC#N)C(=O)Nc2cccc3ccccc23)[C@H](C)[C@@H](O)[C@]1(C)O
Staphylococcus aureus; [5]
  MIC: > 64 mg/L
Streptococcus pneumoniae [1]; [6]
  MIC: 16 mg/L (≈ 18.7 µM)
Streptococcus pneumoniae [2]; [6]
  MIC: 64 mg/L (≈ 74.8 µM)
Streptococcus pyogenes [3]; [7]
  MIC: 16 mg/L (≈ 18.7 µM)
Streptococcus pyogenes [4]; [7]
  MIC: 64 mg/L (≈ 74.8 µM)
Moraxella catarrhalis
  MIC: 8 mg/L (≈ 9.34 µM)
Haemophilus influenzae; [8]
  MIC: 32 mg/L (≈ 37.4 µM)
Enterococcus faecalis
  MIC: > 64 mg/L
Escherichia coli; [9]
  MIC: 64 mg/L (≈ 74.8 µM)

## CC[C@H]1OC(=O)[C@H](C)[C@@H](O)[C@H](C)[C@@H](O[C@@H]2O[C@H](C)C[C@H](N(C)C)[C@H]2O)[C@](C)(O)C[C@@H](C)CN(CCCN(CCC#N)C(=O)Nc2ccc3ccccc3c2)[C@H](C)[C@@H](O)[C@]1(C)O
Staphylococcus aureus; [5]
  MIC: > 64 mg/L
Streptococcus pneumoniae [2]; [6]
  MIC: 4 mg/L (≈ 4.67 µM)
Streptococcus pyogenes [3]; [7]
  MIC: 8 mg/L (≈ 9.34 µM)
Streptococcus pyogenes [4]; [7]
  MIC: 16 mg/L (≈ 18.7 µM)
Moraxella catarrhalis
  MIC: 2 mg/L (≈ 2.34 µM)
Haemophilus influenzae; [8]
  MIC: 2 mg/L (≈ 2.34 µM)
Enterococcus faecalis
  MIC: 32 mg/L (≈ 37.4 µM)
Escherichia coli; [9]
  MIC: 16 mg/L (≈ 18.7 µM)

## CC[C@H]1OC(=O)[C@H](C)[C@@H](O)[C@H](C)[C@@H](O[C@@H]2O[C@H](C)C[C@H](N(C)C)[C@H]2O)[C@](C)(O)C[C@@H](C)CN(CCCN(CCC#N)C(=O)Nc2ccc(Cl)cc2Cl)[C@H](C)[C@@H](O)[C@]1(C)O
Staphylococcus aureus; [5]
  MIC: > 64 mg/L
Streptococcus pneumoniae [2]; [6]
  MIC: 8 mg/L (≈ 9.14 µM)
Streptococcus pyogenes [3]; [7]
  MIC: > 64 mg/L
Moraxella catarrhalis
  MIC: 8 mg/L (≈ 9.14 µM)
Haemophilus influenzae; [8]
  MIC: 16 mg/L (≈ 18.3 µM)
Enterococcus faecalis
  MIC: > 64 mg/L
Escherichia coli; [9]
  MIC: > 64 mg/L

## CC[C@H]1OC(=O)[C@H](C)[C@@H](O)[C@H](C)[C@@H](O[C@@H]2O[C@H](C)C[C@H](N(C)C)[C@H]2O)[C@](C)(O)C[C@@H](C)CN(CCCN(CCC#N)C(=S)NCc2ccccc2)[C@H](C)[C@@H](O)[C@]1(C)O
Staphylococcus aureus; [5]
  MIC: > 64 mg/L
Streptococcus pneumoniae [2]; [6]
  MIC: 16 mg/L (≈ 19.1 µM)
Streptococcus pyogenes [3]; [7]
  MIC: > 64 mg/L
Moraxella catarrhalis
  MIC: 2 mg/L (≈ 2.39 µM)
Haemophilus influenzae; [8]
  MIC: 8 mg/L (≈ 9.57 µM)
Enterococcus faecalis
  MIC: > 64 mg/L
Escherichia coli; [9]
  MIC: > 64 mg/L

## CC[C@H]1OC(=O)[C@H](C)[C@@H](O)[C@H](C)[C@@H](O[C@@H]2O[C@H](C)C[C@H](N(C)C)[C@H]2O)[C@](C)(O)C[C@@H](C)CN(CCCN(CCC#N)C(=S)NCCc2ccccc2)[C@H](C)[C@@H](O)[C@]1(C)O
Staphylococcus aureus; [5]
  MIC: > 64 mg/L
Streptococcus pneumoniae [2]; [6]
  MIC: 16 mg/L (≈ 18.8 µM)
Streptococcus pyogenes [3]; [7]
  MIC: > 64 mg/L
Moraxella catarrhalis
  MIC: 8 mg/L (≈ 9.41 µM)
Haemophilus influenzae; [8]
  MIC: 32 mg/L (≈ 37.6 µM)
Enterococcus faecalis
  MIC: > 64 mg/L
Escherichia coli; [9]
  MIC: > 64 mg/L

## CC[C@H]1OC(=O)[C@H](C)[C@@H](O)[C@H](C)[C@@H](O[C@@H]2O[C@H](C)C[C@H](N(C)C)[C@H]2O)[C@](C)(O)C[C@@H](C)CN(CCCN(CCC#N)C(=S)NCCCc2ccccc2)[C@H](C)[C@@H](O)[C@]1(C)O
Staphylococcus aureus; [5]
  MIC: > 64 mg/L
Streptococcus pneumoniae [2]; [6]
  MIC: 16 mg/L (≈ 18.5 µM)
Streptococcus pyogenes [3]; [7]
  MIC: 32 mg/L (≈ 37 µM)
Streptococcus pyogenes [4]; [7]
  MIC: 64 mg/L (≈ 74.1 µM)
Moraxella catarrhalis
  MIC: 8 mg/L (≈ 9.26 µM)
Haemophilus influenzae; [8]
  MIC: 8 mg/L (≈ 9.26 µM)
Enterococcus faecalis
  MIC: > 64 mg/L
Escherichia coli; [9]
  MIC: > 64 mg/L

## CC[C@H]1OC(=O)[C@H](C)[C@@H](O)[C@H](C)[C@@H](O[C@@H]2O[C@H](C)C[C@H](N(C)C)[C@H]2O)[C@](C)(O)C[C@@H](C)CN(CCCNC(=O)NC(C)c2cccc3ccccc23)[C@H](C)[C@@H](O)[C@]1(C)O (mixture of isomers)
Staphylococcus aureus; [5]
  MIC: 16 mg/L
Streptococcus pneumoniae [1]; [6]
  MIC: < 0.125 mg/L
Streptococcus pneumoniae [2]; [6]
  MIC: 16 mg/L
Streptococcus pyogenes [3]; [7]
  MIC: < 0.125 mg/L
Streptococcus pyogenes [4]; [7]
  MIC: 16 mg/L
Moraxella catarrhalis
  MIC: 4 mg/L
Haemophilus influenzae; [8]
  MIC: 4 mg/L
Enterococcus faecalis
  MIC: 8 mg/L
Escherichia coli; [9]
  MIC: 16 mg/L

## CC[C@H]1OC(=O)[C@H](C)[C@@H](O)[C@H](C)[C@@H](O[C@@H]2O[C@H](C)C[C@H](N(C)C)[C@H]2O)[C@](C)(O)C[C@@H](C)CN(CCCN(CCC#N)C(=O)NC(C)c2cccc3ccccc23)[C@H](C)[C@@H](O)[C@]1(C)O (mixture of isomers)
Staphylococcus aureus; [5]
  MIC: > 64 mg/L
Streptococcus pneumoniae [1]; [6]
  MIC: 4 mg/L
Streptococcus pneumoniae [2]; [6]
  MIC: 8 mg/L
Streptococcus pyogenes [3]; [7]
  MIC: 4 mg/L
Streptococcus pyogenes [4]; [7]
  MIC: > 64 mg/L
Moraxella catarrhalis
  MIC: 4 mg/L
Haemophilus influenzae; [8]
  MIC: 16 mg/L
Enterococcus faecalis
  MIC: 64 mg/L
Escherichia coli; [9]
  MIC: > 64 mg/L

## CC[C@H]1OC(=O)[C@H](C)[C@@H](O[C@H]2C[C@@](C)(OC)[C@@H](O)[C@H](C)O2)[C@H](C)[C@@H](O[C@@H]2O[C@H](C)C[C@H](N(C)C)[C@H]2O)[C@](C)(O)C[C@@H](C)CN(C)[C@H](C)[C@@H](O)[C@]1(C)O (stereo in doubt; 1) [AZITHROMYCIN]
Staphylococcus aureus
  MIC: 0.5 mg/L (≈ 0.668 µM)
Streptococcus pneumoniae [2]
  MIC: 8 mg/L (≈ 10.7 µM)
Streptococcus pyogenes [4]
  MIC: 4 mg/L (≈ 5.34 µM)
Moraxella catarrhalis
  MIC: < 0.125 mg/L
Haemophilus influenzae
  MIC: 1 mg/L (≈ 1.34 µM)
Enterococcus faecalis
  MIC: 8 mg/L (≈ 10.7 µM)
Escherichia coli
  MIC: 2 mg/L (≈ 2.67 µM)

## CC[C@H]1OC(=O)[C@H](C)[C@@H](O[C@H]2C[C@@](C)(OC)[C@@H](O)[C@H](C)O2)[C@H](C)[C@@H](O[C@@H]2O[C@H](C)C[C@H](N(C)C)[C@H]2O)[C@](C)(O)C[C@@H](C)CN(C)[C@H](C)[C@@H](O)[C@]1(C)O (stereo in doubt; 2) [AZITHROMYCIN]
Staphylococcus aureus
  MIC: >64 mg/L
Streptococcus pneumoniae [1]
  MIC: >64 mg/L
Streptococcus pneumoniae [2]
  MIC: >64 mg/L
Streptococcus pyogenes [3]
  MIC: >64 mg/L
Streptococcus pyogenes [4]
  MIC: >64 mg/L
Haemophilus influenzae
  MIC: 16 mg/L (≈ 21.4 µM)
Escherichia coli
  MIC: 16 mg/L (≈ 21.4 µM)
